Legend:
CCK1 receptors = target: T1, CCK1 receptors (Cavia porcellus, UniProt Q63931); test: CCK1 binding assay, guinea-pig pancreas membranes, [125I]-CCK8(S); settings: [125I]-CCK8(S) 200 pM, 150 minutes at 21±3° C; for Ki: read-out: Guinea-Pig Pancreas CCK1 pKi (converted)
T1 construct: The pancreatata were homogenised in 40 ml ice-cold HEPES buffer using a polytron; from tissue; host or cells: pancreas membranes of male Dunkin Hartley guinea-pigs
T1 sequence (Q63931 1-430): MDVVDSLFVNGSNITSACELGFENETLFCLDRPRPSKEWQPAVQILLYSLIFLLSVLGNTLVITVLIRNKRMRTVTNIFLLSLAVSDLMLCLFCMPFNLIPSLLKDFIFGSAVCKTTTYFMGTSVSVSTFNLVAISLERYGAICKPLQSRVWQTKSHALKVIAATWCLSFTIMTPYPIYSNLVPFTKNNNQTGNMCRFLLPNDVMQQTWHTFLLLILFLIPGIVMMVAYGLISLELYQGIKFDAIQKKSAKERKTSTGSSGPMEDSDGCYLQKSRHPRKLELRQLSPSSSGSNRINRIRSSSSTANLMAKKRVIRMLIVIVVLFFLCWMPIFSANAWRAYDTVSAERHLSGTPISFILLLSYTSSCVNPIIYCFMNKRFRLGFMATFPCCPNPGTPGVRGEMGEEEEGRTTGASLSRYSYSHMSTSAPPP
Protocol: The compounds of certain examples were also tested in a CCK1 binding assay as follows:
The pancreatata were removed from male guinea-pigs (200-300 g; Dunkin Hartley) and placed in ice-cold HEPES buffer (pH 7.2@21±3° C.). The pancreatata were homogenised in 40 ml ice-cold HEPES buffer using a polytron (Brinkmann, PT10, setting 10) 4×1 second. The homogenate was centrifuged at 39,800 g for 15 min at 4° C. The supernatant was discarded and the pellet re-suspended using a Teflon-in-glass homogeniser in 20 volumes of fresh buffer and re-centrifuged as above. The final pellet was re-suspended using a Teflon-in-glass homogeniser to a tissue concentration of 1 mg.ml^−1 (original wet weight), and filtered through a 500 μm pore-size Nytex mesh.
The membranes (400 μl; containing 0.375 μM PD134,308) were incubated for 150 minutes at 21±3° C. in a final volume of 0.5 ml with HEPES buffer containing [^125I]-CCK8 (S) (50 μl; 200 pM) and competing compound. Total and non-specific binding of [^125I]-CCK8 (S) were defined using 50 μl of buffer and 50μ of 100 nM L-364,718 respectively. The assay was terminated by rapid filtration through pre-soaked Whatman GF/B filters using a Brandell Cell Harvetser. The filters were washed (3×3 ml) with ice-cold 50 mM Tris HCl (pH 7.4@4° C.) and bound radioactivity was determined by counting (1 min) in a gamma counter.

gastrin (CCK2) receptors = target: T2, gastrin (CCK2) receptors (Rattus norvegicus, UniProt P30553); test: immature rat stomach assay, gastrin (CCK2) antagonist activity; settings: isolated immature rat stomach, antagonism of pentagastrin-stimulated acid secretion, 60 min incubation; for Kb: read-out: Rat stomach pKB (converted)
T2 construct: The stomach was excised and flushed with ca. 1 ml of unbuffered physiological saline solution; from tissue; host or cells: isolated whole stomach of immature rats (33-50 g, ca. 21 days old)
T2 sequence (P30553 1-452): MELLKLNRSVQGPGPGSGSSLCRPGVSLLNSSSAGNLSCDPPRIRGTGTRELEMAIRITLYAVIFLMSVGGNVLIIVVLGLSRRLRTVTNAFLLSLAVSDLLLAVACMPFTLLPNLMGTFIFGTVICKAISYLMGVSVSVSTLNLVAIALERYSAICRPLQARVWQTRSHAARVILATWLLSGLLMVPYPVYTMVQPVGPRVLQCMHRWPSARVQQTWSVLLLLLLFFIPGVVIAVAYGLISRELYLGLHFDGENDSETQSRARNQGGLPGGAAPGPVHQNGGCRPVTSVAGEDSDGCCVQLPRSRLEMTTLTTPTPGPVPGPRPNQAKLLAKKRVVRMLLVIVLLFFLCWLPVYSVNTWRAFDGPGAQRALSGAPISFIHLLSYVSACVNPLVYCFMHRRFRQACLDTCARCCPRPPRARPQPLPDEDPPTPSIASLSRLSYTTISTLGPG
Protocol: The compounds of the examples were tested for gastrin (CCK2) antagonist activity in an immature rat stomach assay. The procedure was as follows:
The oesophagus of immature rats (33-50 g, ca. 21 days old) was ligated at the level of the cardiac sphincter and the duodenal sphincter was cannulated. The stomach was excised and flushed with ca. 1 ml of unbuffered physiological saline solution. The fundus was punctured and cannulated. A further 4-5 ml of unbuffered solution was flushed through the stomach to ensure the preparation was not leaking. The stomach was lowered into a jacketed organ bath containing 40 ml of buffered solution containing 3×10^−8 M 5-methylfurmethide, maintained at 37° and gassed vigorously with 95% O2/5% CO2. The stomach was continuously perfused at a rate of 1 ml min^−1 with unbuffered solution gassed with 100% O2 with perfusate passing over an internally referenced pH-electrode fixed 12 cm above the stomach.
After 120 min of stabilisation the drugs were added directly to the serosal solution in the organ bath and after a further 60 min cumulative pentagastrin dose-response curves were started. Changes in acid secretion were monitored and the curves analysed according to Black et al., Br. J. Pharmacol., 1985, 86, 581.

Row | Molecule | Guinea-Pig Pancreas CCK1 pKi (CCK1 receptors) | Rat stomach pKB (gastrin (CCK2) receptors) | Ki (CCK1 receptors) [nM] | Kb (gastrin (CCK2) receptors) [nM]
1 | 2-{5-[5-(Adamantan-1-yloxymethyl)-2-cyclohexyl-1H-imidazol-2-yl]-[1,3,4]oxadiazol-2-yl}-isonicotinic acid [Example 14] | 5.01 | 5.98 |  | 
2 | 3-{2-[5-(2-Adamantan-1-yl-ethyl)-2-o-tolyl-1H-imidazol-4-yl]-[1,2,4]oxadiazol-3-yl}-benzoic acid [Example 5] | 6.40 | 5.76 |  | 
3 | 3-{2-[5-(Adamantan-1-yloxymethyl)-2-cyclohexyl-1H-imidazol-4-yl]-[1,2,4]oxadiazol-3-yl}-benzoic acid [Example 3] | 6.37 | 8.66 |  | 
4 | 3-{5-[5-(Adamantan-1-yloxymethyl)-2-cyclohexyl-1H-imidazol-4-yl]-[1,3,4]triazol-3-yl}-benzoic acid [Example 10] | 6.41 | 8.28 |  | 
5 | 3-{5-[5-(Adamantan-1-yloxymethyl)-2-cyclohexyl-3-hydroxy-1H-imidazol-4-yl]-[1,3,4]oxadiazol-2-yl}-benzoic acid [Example 17] | 5.23 | 6.90 |  | 
6 | O=C(O)c1cccc(-c2coc(-c3nc(C4CCCCC4)[nH]c3COC34CC5CC(CC(C5)C3)C4)n2)c1 [Example 1, 3-{2-[5-(Adamantan-1-yloxymethyl)-2-cyclohexyl-1H-imidazol-4-yl}-oxazol-4-yl}-benzoic acid] |  |  | 741 | 7.94
7 | Cc1ccccc1-c1nc(-c2nc(-c3cccc(C(=O)O)c3)co2)c(CCC23CC4CC(CC(C4)C2)C3)[nH]1 [Example 2, 3-{2-[5-(2-Adamantan-1-yl-ethyl)-2-o-tolyl-1H-imidazol-4-yl]oxazol-4-yl}-benzoic acid] |  |  | 1170 | 18.2
8 | O=C(O)c1cccc(-c2noc(-c3nc(C4CCCCC4)[nH]c3CCC34CC5CC(CC(C5)C3)C4)n2)c1 [Example 4, 3-{2-[5-(2-Adamantan-1-yl-ethyl)-2-cyclohexyl-1H-imidazol-4-yl]-[1,2,4]oxadiazol-3-3-yl}-benzoic acid] |  |  | 339 | 6.92
9 | O=C(O)c1cccc(-c2csc(-c3nc(C4CCCCC4)[nH]c3COC34CC5CC(CC(C5)C3)C4)n2)c1 [Example 6, 3-{2-[5-(Adamantan-1-yloxymethyl)-2-cyclohexyl-1H-imidazol-4-yl]-thiazol-4-yl}-benzoic acid] |  |  | 1150 | 2.69
10 | O=C(O)c1cccc(-c2c[nH]c(-c3nc(C4CCCCC4)[nH]c3COC34CC5CC(CC(C5)C3)C4)n2)c1 [Example 7, 3-[5′-(Adamantan-1-yloxymethyl)-2′cyclohexyl-1H,1H′-[2,4′]biimidazolyl-4-yl]-benzoic acid] |  |  | 269 | 97.7
11 | O=C(O)c1cccc(-c2nnc(-c3nc(C4CCCCC4)[nH]c3COC34CC5CC(CC(C5)C3)C4)s2)c1 [Example 8, 3-{5-[5-(Adamantan-1-yloxymethyl)-2-cyclohexyl-1H-imidazol-4-yl]-[1,3,4]thiadiazol-2-yl}-benzoic acid] |  |  | 135 | 3.72
12 | O=C(O)c1cccc(-c2nnc(-c3nc(C4CCCCC4)[nH]c3COC34CC5CC(CC(C5)C3)C4)o2)c1 [Example 9, 3-{5-[5-(Adamantan-1-yloxymethyl)-2-cyclohexyl-1H-imidazol-4-yl]-[1,3,4]oxadiazol-2-yl}-benzoic acid] |  |  | 550 | 2.45
13 | O=C(O)c1cccc(C2CN=C(c3nc(C4CCCCC4)[nH]c3COC34CC5CC(CC(C5)C3)C4)O2)c1 (centres unmarked) [Example 11, 3-{2-[5-(Adamantan-1-yloxymethyl)-2-cyclohexyl-1H-imidazol-4-yl]-4,5-dihydro-oxazol-5-yl}-benzoic acid] |  |  |  | 191
14 | O=C(O)c1cccc(-c2nnc(-c3nc(C4CCCCC4)[nH]c3COC34CC5CC(CC(C5)C3)C4)o2)n1 [Example 12, 6-{5-[5-(Adamantan-1-yloxymethyl)-2-cyclohexyl-1H-imidazol-4-yl]-[1,3,4]oxadiazol-2-yl}-pyridine-2-carboxylic acid] |  |  | 2140 | 
15 | O=C(O)c1cncc(-c2nnc(-c3nc(C4CCCCC4)[nH]c3COC34CC5CC(CC(C5)C3)C4)o2)c1 [Example 13, 5-{5-[5-(Adamantan-1-yloxymethyl)-2-cyclohexyl-1H-imidazol-4-yl]-[1,3,4]oxadiazo-2-yl}-nicotinic acid] |  |  | 3240 | 22.9
16 | O=C(O)c1cccc(-c2nnc(-c3nc(C45CCC(CC4)CC5)[nH]c3COC34CC5CC(CC(C5)C3)C4)o2)c1 [Example 16, 3-{5-[5-(Adamantan-1-yloxymethyl)-2-bicyclo[2.2.2]oct-1-yl-1H-imidazol-4-yl]-[1,3,4]oxadiazol-2-yl}-benzoic acid] |  |  | 468 | 1.91
17 | O=C(O)c1cccc(-c2nc(-c3nc(C4CCCCC4)[nH]c3COC34CC5CC(CC(C5)C3)C4)no2)c1 [Example 18, 3-{3-[5-(Adamantan-1-yloxymethyl)-2-cyclohexyl-1H-imidazol-4-yl]-[1,2,4]oxadiazol-5-yl}-benzoic acid] |  |  | 501 | 2.4

Source: patent US6878734B2, “Gastrin and cholecystokinin receptor ligands(II)” (James Black Foundation Limited, priority 2000, dated 2005)
